Converted amounts (≈) assume the structure as drawn. The source made the active and inactive calls. The calls are words filed in the database; no cut-off is given here.
Columns and labels:
[1] = Distribution coefficient, log D of the compound by shake flask method; type: physicochemical; conditions: octanol/water
[2] = Modulation of HbS (unknown origin) assessed as stabilization of the oxy-state of hemoglobin by measuring conversion from oxyHb (R) to deoxyHb (T) pre-incubated for 1 hr and measured after 120 mins by oxygen dissociation assay; parameters: species or system Homo sapiens
[3] = Binding affinity to purified human cross-linked HbS by SPR analysis
[4] = target: T1, Voltage-gated inwardly rectifying potassium channel KCNH2 (Homo sapiens, UniProt Q12809); assay: Binding affinity to human ERG by dofetilide fluorescence polarization binding assay
[5] = Intrinsic clearance in human hepatocytes assessed per million cells; type: ADME, cell-based, Hepatocyte; conditions: read-out: CLH
[6] = Thermodynamic solubility of the compound; type: physicochemical; conditions: read-out: Therm_solubility
[7] = Kinetic solubility of the compound; type: physicochemical; conditions: read-out: Kinetic_solubility
[8] = Apparent permeability from basolateral to apical side in MDCK-MDR1 cells; type: ADME, cell-based, Canis lupus familiaris; conditions: dog
[9] = target: T1, Voltage-gated inwardly rectifying potassium channel KCNH2; assay: Inhibition of human ERG by patch clamp assay
[10] = Protein binding in human RBC assessed as unbound fraction at 1 mM; type: ADME, tissue-based, Erythrocyte; conditions: red blood cells (RBC)
[11] = Apparent permeability in MDCK cells; type: ADME, cell-based, Canis lupus familiaris; conditions: dog
[12] = Drug metabolism in human hepatocytes assessed formation of glucuronide metabolites; type: ADME, cell-based, Hepatocyte
Cytochrome P450 2D6 = Cytochrome P450 2D6 (Homo sapiens, UniProt P10635); assay: Inhibition of CYP2D6 (unknown origin); type: ADME
Cytochrome P450 2C8 = target: T2, Cytochrome P450 2C8 (Homo sapiens, UniProt P10632); assay: Inhibition of CYP2C8 (unknown origin); type: ADME
T2 sequence (P10632 whole entry): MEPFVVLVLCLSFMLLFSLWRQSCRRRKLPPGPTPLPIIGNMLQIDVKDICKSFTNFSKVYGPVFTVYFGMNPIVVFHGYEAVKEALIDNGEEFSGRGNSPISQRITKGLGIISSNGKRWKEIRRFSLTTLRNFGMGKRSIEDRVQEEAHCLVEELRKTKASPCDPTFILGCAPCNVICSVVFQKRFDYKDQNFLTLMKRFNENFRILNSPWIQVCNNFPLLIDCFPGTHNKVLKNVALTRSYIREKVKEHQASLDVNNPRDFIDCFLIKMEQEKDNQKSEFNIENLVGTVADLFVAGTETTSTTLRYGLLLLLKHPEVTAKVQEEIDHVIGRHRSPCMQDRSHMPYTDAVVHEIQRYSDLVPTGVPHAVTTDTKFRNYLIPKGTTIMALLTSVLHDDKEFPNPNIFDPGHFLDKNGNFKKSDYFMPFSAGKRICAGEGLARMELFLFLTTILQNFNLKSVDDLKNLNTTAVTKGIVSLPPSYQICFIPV

[13] = Modulation activity at HbS in sickle Townes mouse assessed as decrease in RBC sickling at 200 mg/kg, po BID for 15 days dosed via gavage by Hemox-analyzer based assay; type: functional; parameters: scale not given: the % may be the effect or the level left; conditions: time 15 day
Cytochrome P450 1A2 = target: T3, Cytochrome P450 1A2 (Homo sapiens, UniProt P05177); assay: Inhibition of CYP1A2 (unknown origin); type: ADME
T3 sequence (P05177 whole entry): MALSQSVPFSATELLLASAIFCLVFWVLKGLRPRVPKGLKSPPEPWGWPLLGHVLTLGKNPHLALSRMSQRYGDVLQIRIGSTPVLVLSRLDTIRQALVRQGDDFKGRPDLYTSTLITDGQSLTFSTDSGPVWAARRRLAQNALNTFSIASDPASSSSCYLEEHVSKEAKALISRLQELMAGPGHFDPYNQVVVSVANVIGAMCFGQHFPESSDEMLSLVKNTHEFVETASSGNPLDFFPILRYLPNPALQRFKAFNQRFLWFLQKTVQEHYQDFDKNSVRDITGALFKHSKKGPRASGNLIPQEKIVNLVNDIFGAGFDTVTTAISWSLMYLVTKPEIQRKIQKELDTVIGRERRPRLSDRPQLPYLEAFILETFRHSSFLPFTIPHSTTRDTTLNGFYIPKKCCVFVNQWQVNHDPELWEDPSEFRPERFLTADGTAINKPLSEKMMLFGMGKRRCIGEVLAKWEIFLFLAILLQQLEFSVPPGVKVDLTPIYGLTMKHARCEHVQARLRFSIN

Cytochrome P450 3A4 = Cytochrome P450 3A4 (Homo sapiens, UniProt P08684); assay: Inhibition of CYP3A4 (unknown origin); type: ADME
Cytochrome P450 2C9 = Cytochrome P450 2C9 (Homo sapiens, UniProt P11712); assay: Inhibition of CYP2C9 (unknown origin); type: ADME
[14] = Apparent permeability from apical to basolateral side in MDCK-MDR1 cells; type: ADME, cell-based, Canis lupus familiaris; conditions: dog
[15] = Unbound fraction in human plasma; type: ADME, cell-free
[16] = Protein binding in human blood; type: ADME, tissue-based
Mus musculus = assay: Binding to HbS in sickle Townes mouse at 10 to 490 mg/kg, po dosed via gavage measured after 0.5 to 24 hrs by Hemox-analyzer based assay; type: functional, organism-based; conditions: dose 10-490 mg/kg, time 0.5-24 hrs
Homo sapiens [17] = organism: Homo sapiens; assay: Binding affinity to HbS tetramer (unknown origin) by ESI-MS analysis; conditions: filed as modulator
CYP3A4 = CYP3A4 (Homo sapiens, UniProt P08684); assay: Inhibition of CYP3A4 (unknown origin) at 3 uM relative to control; type: ADME
[18] = Intrinsic clearance in mouse hepatocytes assessed per million cells; type: ADME, cell-based, Hepatocyte; conditions: read-out: CLH
CYP2D6 = CYP2D6 (Homo sapiens, UniProt P10635); assay: Inhibition of CYP2D6 (unknown origin) at 3 uM relative to control; type: ADME
CYP1A2 = target: T4, CYP1A2 (Homo sapiens, UniProt P05177); assay: Inhibition of CYP1A2 (unknown origin) at 3 uM relative to control; type: ADME
T4 sequence (P05177 whole entry): T3 sequence (P05177 whole entry)

CYP2C9 = CYP2C9 (Homo sapiens, UniProt P11712); assay: Inhibition of CYP2C9 (unknown origin) at 3 uM relative to control; type: ADME
CYP2C8 = target: T5, CYP2C8 (Homo sapiens, UniProt P10632); assay: Inhibition of CYP2C8 (unknown origin) at 3 uM relative to control; type: ADME
T5 sequence (P10632 whole entry): T2 sequence (P10632 whole entry)

Homo sapiens [19] = organism: Homo sapiens; assay: Binding affinity to HbS (unknown origin) by ITC analysis; conditions: filed as modulator

T1 sequence (Q12809 whole entry): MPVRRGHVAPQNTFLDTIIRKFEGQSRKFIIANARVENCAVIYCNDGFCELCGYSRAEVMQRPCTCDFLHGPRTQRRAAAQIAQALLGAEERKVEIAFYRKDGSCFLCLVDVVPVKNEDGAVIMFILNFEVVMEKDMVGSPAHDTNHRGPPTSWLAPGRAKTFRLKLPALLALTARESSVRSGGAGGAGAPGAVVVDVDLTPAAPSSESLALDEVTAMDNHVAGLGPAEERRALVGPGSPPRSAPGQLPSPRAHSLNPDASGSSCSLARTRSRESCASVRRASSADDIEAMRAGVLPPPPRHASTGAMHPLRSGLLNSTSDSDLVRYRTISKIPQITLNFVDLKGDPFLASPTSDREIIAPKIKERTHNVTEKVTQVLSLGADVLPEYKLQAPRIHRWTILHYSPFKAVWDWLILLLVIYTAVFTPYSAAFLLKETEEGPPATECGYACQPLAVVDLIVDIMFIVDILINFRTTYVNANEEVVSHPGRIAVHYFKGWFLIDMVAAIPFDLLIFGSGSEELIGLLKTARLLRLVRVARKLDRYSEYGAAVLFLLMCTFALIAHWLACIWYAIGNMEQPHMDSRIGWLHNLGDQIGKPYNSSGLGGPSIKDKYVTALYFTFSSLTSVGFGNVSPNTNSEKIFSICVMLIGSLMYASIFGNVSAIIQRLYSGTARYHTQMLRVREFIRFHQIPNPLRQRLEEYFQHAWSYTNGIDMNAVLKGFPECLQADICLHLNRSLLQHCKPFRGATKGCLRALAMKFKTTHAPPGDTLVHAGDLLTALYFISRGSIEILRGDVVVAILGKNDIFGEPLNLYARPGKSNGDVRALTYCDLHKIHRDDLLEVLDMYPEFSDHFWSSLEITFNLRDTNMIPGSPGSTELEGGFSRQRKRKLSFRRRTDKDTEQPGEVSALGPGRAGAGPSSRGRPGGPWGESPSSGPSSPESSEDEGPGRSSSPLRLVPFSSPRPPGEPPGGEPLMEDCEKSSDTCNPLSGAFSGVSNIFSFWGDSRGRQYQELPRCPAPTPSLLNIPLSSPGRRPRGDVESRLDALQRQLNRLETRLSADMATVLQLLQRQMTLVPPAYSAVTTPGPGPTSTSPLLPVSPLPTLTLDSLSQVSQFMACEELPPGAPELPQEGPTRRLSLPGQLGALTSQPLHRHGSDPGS
Sequence of CYP2D6 (P10635 whole entry): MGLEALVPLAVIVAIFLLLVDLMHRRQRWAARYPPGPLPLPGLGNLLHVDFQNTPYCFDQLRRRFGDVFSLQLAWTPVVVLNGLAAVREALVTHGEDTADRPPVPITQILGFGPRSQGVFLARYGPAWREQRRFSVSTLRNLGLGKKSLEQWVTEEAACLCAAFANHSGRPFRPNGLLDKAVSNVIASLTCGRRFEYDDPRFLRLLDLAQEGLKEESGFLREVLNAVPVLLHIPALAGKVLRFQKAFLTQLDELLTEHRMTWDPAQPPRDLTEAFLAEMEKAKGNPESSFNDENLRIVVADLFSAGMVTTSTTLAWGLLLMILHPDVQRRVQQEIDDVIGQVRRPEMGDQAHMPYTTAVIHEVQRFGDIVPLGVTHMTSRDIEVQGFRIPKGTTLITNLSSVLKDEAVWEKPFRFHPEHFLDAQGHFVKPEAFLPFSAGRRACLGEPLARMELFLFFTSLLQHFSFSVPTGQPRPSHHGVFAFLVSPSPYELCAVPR
Sequence of Cytochrome P450 2D6 (P10635 whole entry): as above
Sequence of Cytochrome P450 2C9 (P11712 whole entry): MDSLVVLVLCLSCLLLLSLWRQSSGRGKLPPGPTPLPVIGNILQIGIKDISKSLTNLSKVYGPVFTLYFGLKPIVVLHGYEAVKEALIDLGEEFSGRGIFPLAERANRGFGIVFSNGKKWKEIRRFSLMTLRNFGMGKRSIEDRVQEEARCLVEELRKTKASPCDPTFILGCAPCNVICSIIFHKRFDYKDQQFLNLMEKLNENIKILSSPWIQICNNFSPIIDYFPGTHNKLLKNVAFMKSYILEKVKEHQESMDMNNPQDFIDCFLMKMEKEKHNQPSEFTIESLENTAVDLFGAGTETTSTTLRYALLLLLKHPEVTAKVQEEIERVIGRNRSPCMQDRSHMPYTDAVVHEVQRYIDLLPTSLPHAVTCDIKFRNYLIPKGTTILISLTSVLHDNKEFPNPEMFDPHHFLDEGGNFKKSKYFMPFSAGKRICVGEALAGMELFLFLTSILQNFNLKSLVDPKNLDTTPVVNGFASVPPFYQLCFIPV
Sequence of CYP2C9 (P11712 whole entry): as above
Sequence of Cytochrome P450 3A4 (P08684 whole entry): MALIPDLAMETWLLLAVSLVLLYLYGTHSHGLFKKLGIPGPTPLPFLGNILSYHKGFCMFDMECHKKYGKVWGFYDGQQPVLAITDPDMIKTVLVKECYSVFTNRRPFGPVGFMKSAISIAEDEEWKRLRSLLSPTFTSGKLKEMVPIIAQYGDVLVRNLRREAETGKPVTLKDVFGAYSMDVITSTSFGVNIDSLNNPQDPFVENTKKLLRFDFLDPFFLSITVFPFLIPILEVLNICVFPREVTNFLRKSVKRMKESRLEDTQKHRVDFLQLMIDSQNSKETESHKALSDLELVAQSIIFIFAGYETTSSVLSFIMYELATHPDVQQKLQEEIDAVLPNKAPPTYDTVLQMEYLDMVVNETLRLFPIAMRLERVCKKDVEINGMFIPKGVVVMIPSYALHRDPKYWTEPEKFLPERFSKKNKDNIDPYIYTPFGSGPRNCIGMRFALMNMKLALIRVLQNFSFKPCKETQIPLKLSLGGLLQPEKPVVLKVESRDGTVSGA
Sequence of CYP3A4 (P08684 whole entry): as above

C[C@H](Oc1cc2cc(F)ccc2nc1N)c1cc(C(=O)O)ccc1-n1cccn1
logD [1]: 0.9 | IC50 [2]: 4.9 µM | Kd [3]: 0.1 µM | Ki [4]: > 40 µM | hepatocyte CLint [5]: 4 µL/min/1e6 cells

C[C@H](Oc1cc2cc(C(N)=O)ccc2nc1N)c1ncc(F)cc1-n1cccn1
logD [1]: 1.9 | IC50 [2]: 5.4 µM | Kd [3]: 0.183 µM | solubility thermodynamic [6]: 5.3 µg/mL (≈ 13.5 µM) | Ki [4]: 34 µM | hepatocyte CLint [5]: < 2 µL/min/1e6 cells | solubility kinetic [7]: 28.5 µg/mL (≈ 72.6 µM)

C[C@H](Oc1cc2cc(C(N)=O)ccc2nc1N)c1cc(F)ccc1-n1cccn1
logD [1]: 3 | IC50 [2]: 11 µM | Kd [3]: 0.402 µM | Ki [4]: 24 µM | hepatocyte CLint [5]: 13 µL/min/1e6 cells

C[C@H](Oc1cc2cc(C(N)=O)cc(F)c2nc1N)c1ncc(F)cc1-n1cccn1
logD [1]: 2.1 | IC50 [2]: 3.9 µM | Kd [3]: 0.068 µM | solubility thermodynamic [6]: 0.6 µg/mL (≈ 1.46 µM) | Ki [4]: > 40 µM | hepatocyte CLint [5]: 4 µL/min/1e6 cells | solubility kinetic [7]: 0.5 µg/mL (≈ 1.22 µM)

Cc1n[nH]cc1-c1cnc(N)c(O[C@H](C)c2cc(F)ccc2-n2cccn2)c1
Kd [3]: > 300 µM

C[C@H](Oc1cc2cc(F)ccc2nc1N)c1[nH]c(=O)ccc1-n1cccn1 [PF-07059013]
Papp B→A [8]: 14 ×10⁻⁶ cm/s | IC50 [9]: 43 µM | fraction unbound at 1000 µM [10]: 0.000598 | Papp [11]: 20 ×10⁻⁶ cm/s | logD [1]: 2.4 | Drug metabolism [12]: Metabolite_Detected | IC50 (Cytochrome P450 2D6): > 30 µM | IC50 (Cytochrome P450 2C8): 21.8 µM | Activity [13]: 37.8% | IC50 (Cytochrome P450 1A2): 24.4 µM | IC50 [2]: 4.8 µM | IC50 (Cytochrome P450 3A4): > 30 µM | IC50 (Cytochrome P450 2C9): 24.9 µM | Papp A→B [14]: 0.1 ×10⁻⁶ cm/s | Kd [3]: 0.034 µM | fraction unbound [15]: 0.162 | Ki [4]: > 36 µM | hepatocyte CLint [5]: 18 µL/min/1e6 cells | PB [16]: Dose-dependent effect | PPB (Mus musculus): Dose-dependent effect

C[C@H](Oc1cc2cc(C(N)=O)ccc2nc1N)c1cc(F)c(F)cc1-n1cccn1
logD [1]: 3.2 | IC50 [2]: 5.4 µM | Kd [3]: 0.122 µM | Ki [4]: 4.1 µM | hepatocyte CLint [5]: 14 µL/min/1e6 cells

Cc1n[nH]cc1-c1cnc(N)c(OC(C)c2cc(F)ccc2-n2cccn2)c1 (racemic)
Activity (Homo sapiens [17]): Active

C[C@H](Oc1cc2c(F)ccc(F)c2nc1N)c1cc(C(=O)O)ccc1-n1cccn1
logD [1]: 1.1 | IC50 [2]: 4.5 µM | Kd [3]: 0.064 µM | hepatocyte CLint [5]: < 3 µL/min/1e6 cells

Cc1n[nH]cc1-c1cnc(N)c(O[C@@H](C)c2cc(F)ccc2-n2cccn2)c1
inhibition at 3 µM (CYP3A4): < 50% | Papp [11]: 24 ×10⁻⁶ cm/s | logD [1]: 3.2 | hepatocyte CLint [18]: 104 µL/min/1e6 cells | inhibition at 3 µM (CYP2D6): < 50% | inhibition at 3 µM (CYP1A2): < 50% | IC50 [2]: 21 µM | Kd [3]: 3.6 µM | Ki [4]: 3.8 µM | hepatocyte CLint [5]: 23 µL/min/1e6 cells | inhibition at 3 µM (CYP2C9): < 50% | inhibition at 3 µM (CYP2C8): < 50% | Activity (Homo sapiens [19]): Active

C[C@H](Oc1cc2cc(C(N)=O)ccc2nc1N)c1cc2[nH]ncc2cc1-n1cccn1
Papp [11]: 1.4 ×10⁻⁶ cm/s | logD [1]: 2.7 | IC50 [2]: 5.5 µM | Kd [3]: 0.036 µM | Ki [4]: 13 µM | hepatocyte CLint [5]: < 3 µL/min/1e6 cells

C[C@H](Oc1cc2cc(C#N)ccc2nc1N)c1cc(F)c(F)cc1-n1cccn1
logD [1]: 4.3 | IC50 [2]: 5.5 µM | Kd [3]: 0.381 µM | Ki [4]: 19 µM | hepatocyte CLint [5]: 24 µL/min/1e6 cells

C[C@H](Oc1cc2cc(C(N)=O)ccc2nc1N)c1cc2c(cnn2CCO)cc1-n1cccn1
logD [1]: 2.1 | IC50 [2]: 4.3 µM | Kd [3]: 0.059 µM | Ki [4]: > 40 µM | hepatocyte CLint [5]: 4 µL/min/1e6 cells

C[C@H](Oc1cc2cc(F)ccc2nc1N)c1cc(F)c(F)cc1-n1cccn1
logD [1]: 4.1 | IC50 [2]: 5.7 µM | Kd [3]: 0.115 µM | Ki [4]: 4.4 µM | hepatocyte CLint [5]: 57 µL/min/1e6 cells

C[C@H](Oc1cc2cc(C(N)=O)ccc2nc1N)c1nc(OCCO)ccc1-n1cccn1
logD [1]: 1.8 | IC50 [2]: 5.3 µM | Kd [3]: 0.142 µM | hepatocyte CLint [5]: 3 µL/min/1e6 cells

C[C@H](Oc1cc2cc(F)cc(F)c2nc1N)c1[nH]c(=O)ccc1-n1cccn1
logD [1]: 2.6 | IC50 [2]: 4.3 µM | Kd [3]: 0.014 µM | Ki [4]: 63 µM | hepatocyte CLint [5]: 17 µL/min/1e6 cells

C[C@H](Oc1cc2cc(F)ccc2nc1N)c1cc2c(cnn2CC(=O)O)cc1-n1cccn1
logD [1]: 0.5 | IC50 [2]: 3.7 µM | Kd [3]: 0.009 µM | Ki [4]: > 40 µM | hepatocyte CLint [5]: 21 µL/min/1e6 cells

C[C@H](Oc1cc2cc(C#N)ccc2nc1N)c1cc(F)ccc1-n1cccn1
logD [1]: 3.8 | IC50 [2]: 6.1 µM | Kd [3]: 0.322 µM | Ki [4]: > 40 µM | hepatocyte CLint [5]: 40 µL/min/1e6 cells

C[C@H](Oc1cc2cc(F)ccc2nc1N)c1cc2c(cnn2CCO)cc1-n1cccn1
logD [1]: 3.3 | IC50 [2]: 4.5 µM | Kd [3]: 0.02 µM | Ki [4]: 8.3 µM

C[C@H](Oc1cc2ccccc2nc1N)c1cc(F)ccc1-n1cccn1
logD [1]: 4 | IC50 [2]: 17 µM | Kd [3]: 1.5 µM

Source: ChEMBL document CHEMBL4765473, “PF-07059013: A Noncovalent Modulator of Hemoglobin for Treatment of Sickle Cell Disease” (J Med Chem, 2021)
